In patent US10435402B2, “Bicyclic compounds, compositions and medicinal applications thereof” (Advinus Therapeutics Limited, priority 2015, dated 2019):

Each compound was assayed against T1, GAL4-DBD/RORγ-LBD (Homo sapiens, UniProt P51449) (assay: RORγt transactivation reporter assay (GAL4-DBD/RORγ-LBD, luciferase read out)). Conditions: HEK293T cells, GAL4-UAS luciferase reporter, overnight (18-24 hours) incubation.
T1 construct: expressed in transfected cells; host or cells: HEK293T
T1 sequence (P51449 269-508 limits assumed): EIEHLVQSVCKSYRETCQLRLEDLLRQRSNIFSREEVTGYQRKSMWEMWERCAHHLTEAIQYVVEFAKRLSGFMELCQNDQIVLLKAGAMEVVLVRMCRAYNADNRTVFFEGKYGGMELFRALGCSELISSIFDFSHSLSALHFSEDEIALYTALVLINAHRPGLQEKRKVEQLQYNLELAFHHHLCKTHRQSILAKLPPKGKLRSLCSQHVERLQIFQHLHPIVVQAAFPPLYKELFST
T1 sequence (P04386 1-147 partner limits assumed): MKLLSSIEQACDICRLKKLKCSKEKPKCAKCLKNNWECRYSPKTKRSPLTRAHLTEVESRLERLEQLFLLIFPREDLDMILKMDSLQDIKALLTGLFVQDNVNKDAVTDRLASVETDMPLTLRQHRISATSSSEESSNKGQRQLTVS
Format: cell-based
Experimental: RORγt Transactivation Reporter Assay Protocol: The inhibition of RORγt activity in cells was evaluated using a GAL4-UAS reporter system in HEK293T cells employing a luciferase read out. RORγt ligand binding domain (LBD) was cloned into the pFN26A (BIND) vector (Promega #[…]) containing yeast GAL4-DBD to form a RORγt LBD-GAL4 DBD fusion construct. This vector also contained a Renilla Luciferase reporter expressed under a SV40 promoter which was used as a control for transfection efficiency. A transcriptional reporter expression construct pGL4.35 (Promega #[…]) was used to monitor RORγt LBD-GAL4 activity. This construct contained nine repeats of GAL4 binding site/upstream activating sequence (UAS) controlling expression of a firefly luciferase reporter Luc2P. When transfected together in cells, the RORγ-LBD-DBD fusion protein drives expression of the luciferase reporter. For the assay, HEK293T cells were plated in a flat bottom 96 well plate at a density of 25,000 cells/well/100 ul of DMEM high glucose medium (Sigma D5648) containing 10% FBS and antibiotic. Cells were incubated overnight at 37 C/5% CO2. The next day, medium from the wells was removed and replaced with 30 ul of OptiMEM® (Invitrogen #31985070). 100 ng each of pBIND RORγ LBD-DBD and pGL4.35 reporter plasmids was transfected in HEK293T cells using Lipofectamine 2000 (Invitrogen #11668-019) where 10 ul of transfection complex was added to the each well. Control transfections were performed with an empty pF[…] vector and pGL4.35 vector. The transfected cells were incubated for 5 hours at 37 C/5% CO2. After incubation, 40 ul of DMEM high glucose medium without FBS, with antibiotic was added to each well. A 10 mM stock solution of test compound prepared in 100% DMSO was first diluted in DMSO and then in DMEM medium without FBS to give the required final compound concentration. Concentration of DMSO in the test compound solution was 0.4%. 20 ul of diluted compound solution was added to each well. Cells were incubated overnight (18-24 hours) at 37 C/5% CO2. The next day, luciferase assay was performed using the Dual Glo® Luciferase Assay System (Promega #E2940). Briefly, medium was removed from the wells and replaced with 40 ul 1× Passive Lysis Buffer (Promega #E1941). Plate was incubated at room temperature on a plate shaker at 1000 rpm for 40 min. After incubation, plate was centrifuged at 1000 rpm for 2 min. 20 ul of the lysate was transferred from each well to that of solid white half area 96 well plate (Costar #3693). Dual Glo® Reagent was thawed to room temperature and 20 ul was added to each well containing lysate. Plate was centrifuged at 1000 rpm/2 min and incubated at room temperature on a plate shaker at 600 rpm/25 min. Firefly luciferase signal was measured on a Tecan Safire2. After measurement, 20 ul of Dual Glo® Stop Glo® Reagent was added to each well. Plate was centrifuged at 1000 rpm/2 min and incubated at room temperature on a plate shaker at 600 rpm/25 min. Renilla luciferase signal was measured on Tecan Safire 2. IC50 values for test compounds were calculated from the normalized luciferase signal data using GraphPad Prism software.
Work on “4-[3-(2,6-dibromobenzoyl)indolizin-1-yl]benzoic acid [Example A-53]” yielded an IC50 of under 5000 nM. Compound “4-[3-(2,6-dichloro-3-fluoro-benzoyl)-5,6,7,8-tetrahydroindolizin-1-yl]benzoic acid [Example H-3]” has an IC50 of over 5000 nM. “4-[3-(2,6-dichloro-3-fluoro-benzoyl)indolizin-1-yl]-N,N-dimethyl-benzamide [Example F-2]” gave an IC50 of over 5000 nM. For “4-[3-(2,6-dichlorobenzoyl)-6-(4H-1,2,4-triazol-3-yl)indolizin-1-yl]benzoic acid [Example D-10]”, the IC50 was under 500 nM. “4-[3-(2,6-dichlorobenzoyl)-6-(methylcarbamoyl)indolizin-1-yl]benzoic acid [Example D-9]” showed an IC50 of under 5000 nM. “4-[3-(2,6-dichlorophenoxy)indolizin-1-yl]benzoic acid [Example E-3]” gave an IC50 of over 5000 nM. Compound “4-[3-(2,6-difluorobenzoyl)indolizin-1-yl]benzoic acid [Example A-37]” has an IC50 of under 500 nM. “4-[3-(2-chloro-6-fluoro-benzoyl)indolizin-1-yl]benzoic acid [Example A-28]” was tested, and the IC50 was under 500 nM. In the case of “4-[3-(2-chloro-6-methyl-benzoyl)-5,6,7,8-tetrahydroindolizin-1-yl]benzoic acid [Example H-5]”, the IC50 is reported as under 500 nM. “4-[3-[2-chloro-6-(trifluoromethyl)benzoyl]-6-(pyrrolidine-1-carbonyl)indolizin-1-yl]benzoic acid [Example D-12]” showed an IC50 of under 500 nM. “4-[6-carbamoyl-3-(2,6-dichlorobenzoyl)indolizin-1-yl]benzoic acid [Example D-13]” gave an IC50 of under 5000 nM. `CCOC(=O)c1ccc(-c2cc(C(=O)c3c(Cl)cccc3C(F)(F)F)n3ccccc23)cc1` [Example A-1, Ethyl 4-[3-[2-chloro-6-(trifluoromethyl)benzoyl]indolizin-1-yl]benzoate] showed an IC50 of under 500 nM. `O=C(O)c1ccc(-c2cc(C(=O)c3c(Cl)cccc3C(F)(F)F)n3ccccc23)cc1` [Example A-2, 4-[3-[2-chloro-6-(trifluoromethyl)benzoyl]indolizin-1-yl]benzoic acid] was tested, and the IC50 was under 500 nM. `O=C(O)c1ccc(-c2cc(C(=O)c3c(Cl)cccc3Cl)n3ccccc23)c(F)c1` [Example A-3, 4-[3-(2,6-dichlorobenzoyl)indolizin-1-yl]-3-fluoro-benzoic acid] gave an IC50 of under 500 nM. `COC(=O)c1ccc(-c2cc(C(=O)c3c(Cl)cccc3Cl)n3ccccc23)c(F)c1` [Example A-4, methyl 4-[3-(2,6-dichlorobenzoyl)indolizin-1-yl]-3-fluoro-benzoate] gave an IC50 of under 500 nM. In the case of `COC(=O)c1ccc(-c2cc(C(=O)c3c(F)cccc3F)n3ccccc23)c(F)c1` [Example A-5, methyl 4-[3-(2,6-difluorobenzoyl)indolizin-1-yl]-3-fluoro-benzoate], the IC50 is reported as under 500 nM. For `CCOC(=O)c1ccc(-c2cc(C(=O)c3c(Cl)cccc3Cl)n3ccccc23)cc1` [Example A-6, ethyl 4-[3-(2,6-dichlorobenzoyl)indolizin-1-yl]benzoate], the IC50 was under 500 nM. `COC(=O)c1cc(F)c(-c2cc(C(=O)c3c(Cl)cccc3Cl)n3ccccc23)c(F)c1` [Example A-7, methyl 4-[3-(2,6-dichlorobenzoyl)indolizin-1-yl]-3,5-difluoro-benzoate] showed an IC50 of under 500 nM. With `O=C(O)c1ccc(-c2cc(C(=O)c3c(Cl)cccc3Cl)n3ccccc23)cc1` [Example A-8, 4-[3-(2,6-dichlorobenzoyl)indolizin-1-yl]benzoic acid] the IC50 was under 500 nM. Compound `O=C(O)c1cc(F)c(-c2cc(C(=O)c3c(Cl)cccc3Cl)n3ccccc23)c(F)c1` [Example A-9, 4-[3-(2,6-dichlorobenzoyl)indolizin-1-yl]-3,5-difluoro-benzoic acid] has an IC50 of under 500 nM. In the case of `O=C(O)c1ccc(-c2cc(C(=O)c3c(Cl)cccc3Cl)n3ccccc23)cn1` [Example A-10, 5-[3-(2,6-dichlorobenzoyl)indolizin-1-yl]pyridine-2-carboxylic acid], the IC50 is reported as over 5000 nM. `COC(=O)c1ccc(-c2cc(C(=O)c3c(Cl)cccc3C(F)(F)F)n3ccccc23)c(F)c1` [Example A-11, methyl 4-[3-[2-chloro-6-(trifluoromethyl)benzoyl]indolizin-1-yl]-3-fluoro-benzoate] showed an IC50 of under 500 nM. `O=C(O)c1ccc(-c2cc(C(=O)c3c(Cl)cccc3C(F)(F)F)n3ccccc23)c(F)c1` [Example A-12, 4-[3-[2-chloro-6-(trifluoromethyl)benzoyl]indolizin-1-yl]-3-fluoro-benzoic acid] showed an IC50 of under 500 nM. Work on `COC(=O)c1ccc(-c2cc(C(=O)c3c(C)cccc3Cl)n3ccccc23)c(F)c1` [Example A-13, methyl 4-[3-(2-chloro-6-methyl-benzoyl)indolizin-1-yl]-3-fluoro-benzoate] yielded an IC50 of under 500 nM. Work on `CCOC(=O)c1ccc(-c2cc(C(=O)c3c(C)cccc3Cl)n3ccccc23)cc1` [Example A-14, ethyl 4-[3-(2-chloro-6-methyl-benzoyl)indolizin-1-yl]benzoate] yielded an IC50 of under 500 nM. Work on `Cc1cccc(Cl)c1C(=O)c1cc(-c2ccc(C(=O)O)cc2F)c2ccccn12` [Example A-15, 4-[3-(2-chloro-6-methyl-benzoyl)indolizin-1-yl]-3-fluoro-benzoic acid] yielded an IC50 of under 500 nM. `Cc1cccc(Cl)c1C(=O)c1cc(-c2ccc(C(=O)O)cc2)c2ccccn12` [Example A-16, 4-[3-(2-chloro-6-methyl-benzoyl)indolizin-1-yl]benzoic acid] showed an IC50 of under 500 nM. Work on `COC(=O)c1ccc(-c2cc(C(=O)c3c(Cl)ccc(F)c3Cl)n3ccccc23)c(F)c1` [Example A-17, methyl 4-[3-(2,6-dichloro-3-fluoro-benzoyl)indolizin-1-yl]-3-fluoro-benzoate] yielded an IC50 of under 500 nM. `O=C(O)c1ccc(-c2cc(C(=O)c3c(Cl)ccc(F)c3Cl)n3ccccc23)c(F)c1` [Example A-18, 4-[3-(2,6-dichloro-3-fluoro-benzoyl)indolizin-1-yl]-3-fluoro-benzoic acid] was tested, and the IC50 was under 500 nM. `O=C(O)c1ccc(-c2cc(C(=O)c3c(Cl)ccc(F)c3Cl)n3ccccc23)cc1` [Example A-19, 4-[3-(2,6-dichloro-3-fluoro-benzoyl)indolizin-1-yl]benzoic acid] showed an IC50 of under 500 nM. For `CCOC(=O)c1ccc(-c2cc(C(=O)c3c(Cl)cccc3Cl)n3cccc(F)c23)cc1` [Example A-21, ethyl 4-[3-(2,6-dichlorobenzoyl)-8-fluoro-indolizin-1-yl]benzoate], the IC50 was under 500 nM. `COC(=O)c1ccc(-c2cc(C(=O)c3c(Cl)cccc3Cl)n3cccc(F)c23)c(F)c1` [Example A-22, methyl 4-[3-(2,6-dichlorobenzoyl)-8-fluoro-indolizin-1-yl]-3-fluoro-benzoate] was tested, and the IC50 was under 500 nM. `O=C(O)c1ccc(-c2cc(C(=O)c3c(Cl)cccc3Cl)n3cccc(F)c23)cc1` [Example A-23, 4-[3-(2,6-dichlorobenzoyl)-8-fluoro-indolizin-1-yl]benzoic acid] was tested, and the IC50 was under 500 nM. Work on `CCOC(=O)c1ccc(-c2cc(C(=O)c3c(F)cccc3Cl)n3ccccc23)cc1` [Example A-24, ethyl 4-[3-(2-chloro-6-fluoro-benzoyl)indolizin-1-yl]benzoate] yielded an IC50 of under 500 nM. For `O=C(O)c1ccc(-c2cc(C(=O)c3c(Cl)cccc3Cl)n3cc(F)ccc23)cc1` [Example A-26, 4-[3-(2,6-dichlorobenzoyl)-6-fluoro-indolizin-1-yl]benzoic acid], the IC50 was under 500 nM. With `O=C(O)c1ccc(-c2cc(C(=O)c3c(F)cccc3Cl)n3ccccc23)c(F)c1` [Example A-27, 4-[3-(2-chloro-6-fluoro-benzoyl)indolizin-1-yl]-3-fluoro-benzoic acid] the IC50 was under 500 nM. `O=C(O)c1ccc(-c2cc(C(=O)c3c(Cl)cccc3C3CC3)n3ccccc23)c(F)c1` [Example A-29, 4-[3-(2-chloro-6-cyclopropyl-benzoyl)indolizin-1-yl]-3-fluoro-benzoic acid] was tested, and the IC50 was under 500 nM. Compound `CCOC(=O)c1ccc(-c2cc(C(=O)c3c(Cl)cccc3C3CC3)n3ccccc23)c(F)c1` [Example A-30, ethyl 4-[3-(2-chloro-6-cyclopropyl-benzoyl)indolizin-1-yl]-3-fluoro-benzoate] has an IC50 of under 500 nM.
